These results are taken from EPA's ToxValDB 9.5 (doi:10.2903/j.efsa.2009.296r).

≈ marks a conversion by molar mass, not a printed value. Some results are limits rather than exact numbers.

For one series, the system named is Apis mellifera. Particulars: acute, duration: 48 hours, mortality.
In another series the test system is Oncorhynchus mykiss. Particulars: chronic/long-term; duration: 28 days.
For another series, the system named is Oryctolagus sp. The conditions noted are these: developmental; development.
For the next series, the system named is Daphnia magna. The conditions noted are these: chronic/long-term; duration: 21 days.
Another series concerns Coturnix coturnix. The conditions noted are these: oral.
The subject of another series is Mus musculus. Particulars: acute; oral; mortality.
In another series the test system is Salmo trutta ssp. fario. The conditions noted are these: acute; duration: 96 hours; mortality.
The conditions of series [1]: reproductive; oral; feed; reproduction.
Another series deals with Anas platyrhynchos. Particulars: oral.

`O=C1C2CC=CCC2C(=O)N1SC(Cl)(Cl)Cl` (stereo not drawn) [Captan]: the LC50 is more than 200 µg/piece in the series with Apis mellifera (dermal); more than 519 mg/kg with Tagia sp. (acute, duration: 14 days, mortality); more than 800 mg/kg-day in the series with Coturnix coturnix (acute, diet, mortality); 0.098 µg/mL (≈ 0.326 µM) in the series on Salmo trutta ssp. fario; more than 1040 mg/kg-day with Anas platyrhynchos (short-term, feed, mortality). For the same compound, the LD50 in the series with Apis mellifera (oral, unspecified) was more than 100 µg/piece; with Coturnix coturnix (acute, mortality), more than 2000 mg/kg; with Mus musculus, more than 2000 mg/kg; in the series with Rattus norvegicus (acute, oral, mortality), more than 2000 mg/kg; in the series with Anas platyrhynchos (acute, unspecified, mortality), more than 2000 mg/kg. The NOEC with Oncorhynchus mykiss is 0.199 mg/L; in the series with Daphnia magna it was 0.56 mg/L; in the series on Tagia sp. (chronic/long-term, duration: 8 weeks, reproduction), 11.6 mg/kg; with Coturnix coturnix (reproduction developmental, no effects), 83.2 mg/kg-day; with Anas platyrhynchos (reproductive, unspecified, no effects) it was 74.4 mg/kg-day. In addition, the NOAEL with Oryctolagus sp. is 30 mg/kg-day; in the series with Rattus norvegicus (developmental, development), 10 mg/kg-day; in series [1] it was 100 mg/kg-day.

One may read the NOAEL as the highest tested level that showed no adverse finding.
